Results reported in patent publication US20100022483A1, “Substituted Tetracycline Compounds” (Paratek Pharmaceuticals, Inc., priority 2008, published 2010).
Converted amounts (≈) assume the structure as drawn. Like-named read-outs stand apart in the source and are kept apart here.

Assays:
gram positive bacteria = test: In vitro anti-bacterial activity assay (broth dilution MIC), gram positive bacteria; assay type: cell-based, S. aureus; details: 18 h
Excerpt: (§1) Bacterial infections may be caused by a wide variety of gram positive and gram negative bacteria. Some of the compounds of the invention are useful as antibiotics against organisms which are resistant and/or sensitive to other tetracycline compounds. The antibiotic activity of the tetracycline compounds of the invention may by using the in vitro standard broth dilution method described in Waitz, J. A., CLSI, Document M7-A2, vol. 10, no. 8, pp. 13-20, 2nd edition, Villanova, Pa. (1990).
(§2) The following assay was used to determine the efficacy of the tetracycline compounds against gram positive and gram negative bacteria. 2 mg of each compound was dissolved in 100 μl of DMSO. […] The tetracycline compound solutions were diluted to 50 μL volumes, with a test compound concentration of 0.098 μg/ml. Optical density (OD) determinations were made from fresh log-phase broth cultures of the test strains. Dilutions were made to achieve a final cell density of […] CFU/ml. At OD=1, cell densities for different genera were approximately:
(§3) 50 μl of the cell suspensions were added to each well of microtiter plates. The final cell density was approximately 5×10^5 CFU/ml. These plates were incubated at 35° C. in an ambient air incubator for approximately 18 hours. The plates were read with a microplate reader and were visually inspected when necessary. The MIC was defined as the lowest concentration of the tetracycline compound that inhibits growth. Table 3 includes MIC data for several substituted tetracycline compounds.

gram negative bacteria = test: In vitro anti-bacterial activity assay (broth dilution MIC), gram negative bacteria; assay type: cell-based, E. coli
Excerpt: as §1, §2, §3

[1] = Mammalian cytotoxicity assay (resazurin), COS-1 cells; assay type: cell-based; details: African green monkey, read-out: Cytotox. COS-1
Experimental: (§4) COS-1 and CHO-K1 cell suspensions were prepared, seeded into 96-well tissue culture treated black-walled microtiter plates (density determined by cell line), and incubated overnight at 37° C., in 5% CO2 and approximately 95% humidity. The following day, serial dilutions of compound were prepared under sterile conditions and transferred to cell plates. Cell/Compound plates were incubated under the above conditions for 24 hours. Following the incubation period, media/compound was aspirated and 50 μl of resazurin (0.042 mg/ml in PBS w/Ca and Mg) is added. The plates were then incubated under the above conditions for 2 hours and then placed in the dark at room temperature for an additional 30 minutes. Fluorescence measurements were taken (excitation 535 nm, emission 590 nm). The IC50 (concentration of compound causing 50% growth inhibition) was then calculated. Table 3 includes IC50 data for several substituted tetracycline compounds.

in vitro = assay type: cell-based; details: Chinese hamster, Cytotox. CHO-K1
Experimental: as §4

3T3 fibroblast cells = test: In vitro phototoxicity assay (neutral red; UV light-treated vs dark control plates); assay type: cell-based; details: for Photo Toxicity UV Tox50: UV light 50 minutes; for Photo Toxicity Dark Tox50: dark control plate
Experimental: 3T3 fibroblast cells were harvested and plated at a concentration of 1×10^5 cells/mL and the plates were incubated overnight at 37° C., in 5% CO2 and approximately 95% humidity. On the following day the medium was removed from the plates and replaced with Hanks' Balanced Salt Solution (HBSS). Compound dilutions were made in HBSS and added to the plates. For each compound tested, a duplicate plate was prepared that was not exposed to light as a control for compound toxicity. Plates were then incubated in a dark drawer (for controls), or under UV light (meter reading of 1.6-1.8 mW/cm^2) for 50 minutes. Cells were then washed with HBSS, fresh medium was added, and plates were incubated overnight as described above. The following day neutral red was added as an indicator of cell viability. The plates were then incubated for an additional 3 hours. Cells were then washed with HBSS and blotted on absorbent paper to remove excess liquid. A solution of 50% EtOH, 10% glacial acetic acid was added and after 20 minutes incubation the plate's absorbance at 535 nm was read using a Wallac Victor 5 spectrophotometer. The phototoxicity reflected the difference between the light-treated and control cultures. Table 3 includes phototoxicity (μM) data for several substituted tetracycline compounds.

[2] = Staphylococcus aureus, S. aureus MRSA5, read-out: Median MIC's G+ S. aureus MRSA5
[3] = Staphylococcus aureus, S. aureus RN450, read-out: Median MIC's G+ S. aureus RN450
[4] = Streptococcus pneumoniae, S. pneumoniae 157E-Strep, read-out: Median MIC's G+ S. pneumoniae 157E-Strep
[5] = Escherichia coli, 18 h, E. coli D1 209, read-out: Median MIC's G− E. coli D1 209
[6] = Escherichia coli, 18 h, E. coli MG 1655, read-out: Median MIC's G− E. coli MG 1655
[7] = Escherichia coli, ATCC25922, 18 h, E. coli ATCC 25922, read-out: Median MIC's G− E. coli ATCC 25922
[8] = Pseudomonas aeruginosa, 18 h, P. aeruginosa K201 PAO6609, read-out: Median MIC's G− P. aeruginosa K201 PAO6609

Row | Structure (SMILES) | MIC (gram positive bacteria; [2]) [µg/mL] | MIC (gram positive bacteria; [3]) [µg/mL] | MIC (gram positive bacteria; [4]) [µg/mL] | MIC (gram negative bacteria; [5]) [µg/mL] | MIC (gram negative bacteria; [6]) [µg/mL] | MIC (gram negative bacteria; [7]) [µg/mL] | MIC (gram negative bacteria; [8]) [µg/mL] | IC50 at 24 h [1] [µM] | IC50 at 24 h (in vitro) [µM] | Photo Toxicity UV Tox50 (3T3 fibroblast cells) | Photo Toxicity Dark Tox50 (3T3 fibroblast cells)
1 | CCN(CC)CCCC(C)NC(=O)c1ccc(O)c2c1C[C@H]1C[C@H]3[C@H](N(C)C)C(O)=C(C(N)=O)C(=O)[C@@]3(O)C(O)=C1C2=O (stereo partly shown) [AI] | 64 (≈ 107 µM) | 64 (≈ 107 µM) | 64 (≈ 107 µM) | 64 (≈ 107 µM) | 64 (≈ 107 µM) | 64 (≈ 107 µM) | 64 (≈ 107 µM) | > 109 | > 109 | >108.86 µM | >108.86 µM
2 | CC(C)N(C)CC(=O)c1ccc(O)c2c1C[C@H]1C[C@H]3[C@H](N(C)C)C(O)=C(C(N)=O)C(=O)[C@@]3(O)C(O)=C1C2=O [AJ] | 0.5 (≈ 0.948 µM) | 0.06 (≈ 0.114 µM) | 0.06 (≈ 0.114 µM) | 1 (≈ 1.9 µM) | 0.25 (≈ 0.474 µM) | 0.25 (≈ 0.474 µM) | 32 (≈ 60.7 µM) | > 150 | > 150 | >149.87 µM | >149.87 µM
3 | COC(=O)C1CCN(Cc2ccc(O)c3c2C[C@H]2C[C@H]4[C@H](N(C)C)C(O)=C(C(N)=O)C(=O)[C@@]4(O)C(O)=C2C3=O)CC1 [AK] | 2 (≈ 3.51 µM) | 0.06 (≈ 0.105 µM) | 0.06 (≈ 0.105 µM) | 4 (≈ 7.02 µM) | 0.5 (≈ 0.878 µM) | 0.25 (≈ 0.439 µM) | 64 (≈ 112 µM) | > 140 | > 140 | >140.07 µM | >140.07 µM
4 | CN(C)CC(=O)N1CC=C(c2ccc(O)c3c2C[C@H]2C[C@H]4[C@H](N(C)C)C(O)=C(C(N)=O)C(=O)[C@@]4(O)C(O)=C2C3=O)CC1 [AL] | 32 (≈ 55.1 µM) | 0.5 (≈ 0.861 µM) | 0.5 (≈ 0.861 µM) | 64 (≈ 110 µM) | 16 (≈ 27.6 µM) | 16 (≈ 27.6 µM) | 64 (≈ 110 µM) | > 145 | > 145 | >145.35 µM | >145.35 µM
5 | CC(=O)Nc1cccc(-c2ccc(O)c3c2C[C@H]2C[C@H]4[C@H](N(C)C)C(O)=C(C(N)=O)C(=O)[C@@]4(O)C(O)=C2C3=O)c1 [AO] | 4 (≈ 7.31 µM) | 0.06 (≈ 0.11 µM) | 0.06 (≈ 0.11 µM) | 64 (≈ 117 µM) | 32 (≈ 58.4 µM) | 4 (≈ 7.31 µM) | 64 (≈ 117 µM) | > 16.3 | > 16.3 | >162.66 µM | >162.66 µM
6 | COc1ccc(CN(C)C)cc1-c1ccc(O)c2c1C[C@H]1C[C@H]3[C@H](N(C)C)C(O)=C(C(N)=O)C(=O)[C@@]3(O)C(O)=C1C2=O [AT] | 0.5 (≈ 0.866 µM) | 0.06 (≈ 0.104 µM) | 0.06 (≈ 0.104 µM) | 1 (≈ 1.73 µM) | 1 (≈ 1.73 µM) | 0.5 (≈ 0.866 µM) | 64 (≈ 111 µM) | > 146 | > 146 | >146.03 µM | >146.03 µM
7 | CN(C)CCC(=O)c1ccc(O)c2c1C[C@H]1C[C@H]3[C@H](N(C)C)C(O)=C(C(N)=O)C(=O)[C@@]3(O)C(O)=C1C2=O [AV] | 0.5 (≈ 0.974 µM) | 0.06 (≈ 0.117 µM) | 0.5 (≈ 0.974 µM) | 64 (≈ 125 µM) | 16 (≈ 31.2 µM) | 8 (≈ 15.6 µM) | 64 (≈ 125 µM) | > 153 | > 153 | >153.46 µM | >153.46 µM
8 | CN(C)CCNC(=O)c1cccc(-c2ccc(O)c3c2C[C@H]2C[C@H]4[C@@H](N(C)C)C(O)=C(C(N)=O)C(=O)[C@@]4(O)C(O)=C2C3=O)c1 [A] | 64 (≈ 106 µM) | 8 (≈ 13.2 µM) | 4 (≈ 6.62 µM) | 64 (≈ 106 µM) | 64 (≈ 106 µM) | 64 (≈ 106 µM) | 64 (≈ 106 µM) | > 200 | > 200 | M: >200 uM | M: >200 uM
9 | CN1CCN(CC(=O)c2ccc(O)c3c2C[C@H]2C[C@H]4[C@H](N(C)C)C(O)=C(C(N)=O)C(=O)[C@@]4(O)C(O)=C2C3=O)CC1 [BB] | 16 (≈ 28.8 µM) | 2 (≈ 3.61 µM) | 1 (≈ 1.8 µM) | 64 (≈ 115 µM) | 8 (≈ 14.4 µM) | 32 (≈ 57.7 µM) | 64 (≈ 115 µM) | > 136 | > 136 | >135.54 µM | >135.54 µM
10 | CN(C)CC(=O)Nc1ccc(-c2ccc(O)c3c2C[C@H]2C[C@H]4[C@H](N(C)C)C(O)=C(C(N)=O)C(=O)[C@@]4(O)C(O)=C2C3=O)cc1 [BC] | 2 (≈ 3.39 µM) | 0.06 (≈ 0.102 µM) | 0.06 (≈ 0.102 µM) | 1 (≈ 1.69 µM) | 2 (≈ 3.39 µM) | 1 (≈ 1.69 µM) | 64 (≈ 108 µM) | > 13.6 | > 13.6 | >135.63 µM | >135.63 µM
11 | CN(C)CCc1ccc(O)c2c1C[C@H]1C[C@H]3[C@H](N(C)C)C(O)=C(C(N)=O)C(=O)[C@@]3(O)C(O)=C1C2=O [BD] | 32 (≈ 65.9 µM) | 0.5 (≈ 1.03 µM) | 0.13 (≈ 0.268 µM) | 64 (≈ 132 µM) | 4 (≈ 8.24 µM) | 4 (≈ 8.24 µM) | 64 (≈ 132 µM) | > 121 | > 121 | M: >120.91 uM | M: >120.91 uM
12 | COc1ccc(-c2ccc(O)c3c2C[C@H]2C[C@H]4[C@H](N(C)C)C(O)=C(C(N)=O)C(=O)[C@@]4(O)C(O)=C2C3=O)cc1CNCC(N)=O [BE] | 32 (≈ 52.8 µM) | 1 (≈ 1.65 µM) | 0.13 (≈ 0.214 µM) | 64 (≈ 106 µM) | 16 (≈ 26.4 µM) | 64 (≈ 106 µM) | 64 (≈ 106 µM) | > 10.8 | > 10.8 | >107.82 µM | >107.82 µM
13 | CN(C)[C@@H]1C(O)=C(C(N)=O)C(=O)[C@@]2(O)C(O)=C3C(=O)c4c(O)ccc(-c5coc(CN6CCCCC6)c5)c4C[C@H]3C[C@@H]12 [BF] | 1 (≈ 1.73 µM) | 0.06 (≈ 0.104 µM) | 0.06 (≈ 0.104 µM) | 0.5 (≈ 0.866 µM) | 1 (≈ 1.73 µM) | 0.25 (≈ 0.433 µM) | 64 (≈ 111 µM) | > 42.9 | > 42.9 | >138.34 µM | >138.34 µM
14 | COCCNCc1ccc(-c2ccc(O)c3c2C[C@H]2C[C@H]4[C@H](N(C)C)C(O)=C(C(N)=O)C(=O)[C@@]4(O)C(O)=C2C3=O)cc1 [BG] | 1 (≈ 1.73 µM) | 0.06 (≈ 0.104 µM) | 0.06 (≈ 0.104 µM) | 0.5 (≈ 0.866 µM) | 0.5 (≈ 0.866 µM) | 0.25 (≈ 0.433 µM) | 64 (≈ 111 µM) | > 95.6 | 45.3 to 125 | >146.03 µM | >146.03 µM
